These results are taken from patent US12053456B2, “Pharmaceutical compositions for combination therapy” (GENFIT, priority 2017, dated 2024).

For this assay, the system named is α-SMA in TGFβ1-induced hHSC. As to the kind of experiment: α-SMA ELISA in TGFβ1-activated human primary hepatic stellate cells (single agents and combination matrix, EOB/EOHSA). The format is cell-based. Particulars: single agent, 1 hour preincubation, TGFβ1 1 ng/ml, 48 hours. As to the method:
Serum-deprived HSC were preincubated for 1 hour with Elafibranor (A) or Nitazoxanide (B), or Bezafibrate (C) before the activation with the profibrogenic cytokine TGFβ1 (1 ng/ml). After 48 hours of incubation, the expression of α-SMA was measured by ELISA. The obtained values were transformed into percentage inhibition over TGFβ1 control. Data are presented as mean (triplicates)±standard deviation (SD)]. The curve fitting and the calculation of half maximal inhibitory concentration (IC50) were performed with XLFit software 5.3.1.3.
Combinations were tested in a dose-response matrix format and analyzed according to the excess over Bliss (EOB) additivism model. Dilution series of Elafibranor (row) and Nitazoxanide (column) were prepared, including their respective DMSO controls. The resulting mixes were added to serum-deprived HSC, 1 hour prior to the activation with the profibrogenic cytokine TGFβ1 (1 ng/ml). […] (B) EOB scores were calculated as described in Materials and Methods. […] The total EOB score including all combinations was also calculated. […]
Combinations were tested in a dose-response matrix format and analyzed according to the excess over Bliss (EOB) additivism model. […] Percentage of α-SMA inhibition over the TGFβ1 control for all combination pairs was calculated. EOB scores were calculated as described in Materials and Methods. […]
On the technique in general: An ELISA detects its analyte on a solid surface through an enzyme-linked reagent.

As to `O=C(Nc1ncc([N+](=O)[O-])s1)c1ccccc1O` [TZ, tizoxanide], the “antifibrotic activity (α-SMA) in TGFβ-induced hHSC” value was “profile similar to the parent drug”.
